Results reported in paper PMC6736866, “Electron cryomicroscopy observation of acyl carrier protein translocation in type I fungal fatty acid synthase” (Scientific Reports, 2019).

Legend:
[1] = target: T1, C. albicans type I fungal fatty acid synthase (FAS) (Candida albicans, UniProt P34731+P43098); assay: cryoEM structure; format: binding; conditions: ER domain (beta chain); Apo state and KS-stalled state
T1 construct: gene FAS1; endogenous alpha6beta6 complex, native purification by anti-FLAG; C-terminal 6xHIS-3xFLAG on FAS1 (beta) kept; holo-ACP

[2] = target: T2, S. cerevisiae type I fungal fatty acid synthase (FAS) (Saccharomyces cerevisiae, UniProt P07149+P19097); assay: cryoEM structure; format: binding; conditions: ER domain (beta chain); Apo state and KS-stalled state
T2 construct: gene FAS1; endogenous alpha6beta6 heterododecamer, native purification by anti-FLAG; C-terminal 3xFLAG on FAS1 (beta) kept; beta 230 kDa, alpha 220 kDa; holo-ACP

[3] = target: T2, S. cerevisiae type I fungal fatty acid synthase (FAS); assay: cryoEM structure; NADPH oxidation at […] nm; format: biochemical; conditions: ER domain near FMN (beta chain); KS-stalled state, 3 mM NADPH, cerulenin-inhibited; weak density, partial binding
[4] = target: T1, C. albicans type I fungal fatty acid synthase (FAS); assay: cryoEM structure; NADPH oxidation at […] nm; format: biochemical; conditions: ER domain near FMN (beta chain); KS-stalled state, 3 mM NADPH, cerulenin-inhibited; weak density, partial binding
[5] = target: T2, S. cerevisiae type I fungal fatty acid synthase (FAS); format: biochemical

T2 sequence (P07149 whole entry, the tested form may be a part): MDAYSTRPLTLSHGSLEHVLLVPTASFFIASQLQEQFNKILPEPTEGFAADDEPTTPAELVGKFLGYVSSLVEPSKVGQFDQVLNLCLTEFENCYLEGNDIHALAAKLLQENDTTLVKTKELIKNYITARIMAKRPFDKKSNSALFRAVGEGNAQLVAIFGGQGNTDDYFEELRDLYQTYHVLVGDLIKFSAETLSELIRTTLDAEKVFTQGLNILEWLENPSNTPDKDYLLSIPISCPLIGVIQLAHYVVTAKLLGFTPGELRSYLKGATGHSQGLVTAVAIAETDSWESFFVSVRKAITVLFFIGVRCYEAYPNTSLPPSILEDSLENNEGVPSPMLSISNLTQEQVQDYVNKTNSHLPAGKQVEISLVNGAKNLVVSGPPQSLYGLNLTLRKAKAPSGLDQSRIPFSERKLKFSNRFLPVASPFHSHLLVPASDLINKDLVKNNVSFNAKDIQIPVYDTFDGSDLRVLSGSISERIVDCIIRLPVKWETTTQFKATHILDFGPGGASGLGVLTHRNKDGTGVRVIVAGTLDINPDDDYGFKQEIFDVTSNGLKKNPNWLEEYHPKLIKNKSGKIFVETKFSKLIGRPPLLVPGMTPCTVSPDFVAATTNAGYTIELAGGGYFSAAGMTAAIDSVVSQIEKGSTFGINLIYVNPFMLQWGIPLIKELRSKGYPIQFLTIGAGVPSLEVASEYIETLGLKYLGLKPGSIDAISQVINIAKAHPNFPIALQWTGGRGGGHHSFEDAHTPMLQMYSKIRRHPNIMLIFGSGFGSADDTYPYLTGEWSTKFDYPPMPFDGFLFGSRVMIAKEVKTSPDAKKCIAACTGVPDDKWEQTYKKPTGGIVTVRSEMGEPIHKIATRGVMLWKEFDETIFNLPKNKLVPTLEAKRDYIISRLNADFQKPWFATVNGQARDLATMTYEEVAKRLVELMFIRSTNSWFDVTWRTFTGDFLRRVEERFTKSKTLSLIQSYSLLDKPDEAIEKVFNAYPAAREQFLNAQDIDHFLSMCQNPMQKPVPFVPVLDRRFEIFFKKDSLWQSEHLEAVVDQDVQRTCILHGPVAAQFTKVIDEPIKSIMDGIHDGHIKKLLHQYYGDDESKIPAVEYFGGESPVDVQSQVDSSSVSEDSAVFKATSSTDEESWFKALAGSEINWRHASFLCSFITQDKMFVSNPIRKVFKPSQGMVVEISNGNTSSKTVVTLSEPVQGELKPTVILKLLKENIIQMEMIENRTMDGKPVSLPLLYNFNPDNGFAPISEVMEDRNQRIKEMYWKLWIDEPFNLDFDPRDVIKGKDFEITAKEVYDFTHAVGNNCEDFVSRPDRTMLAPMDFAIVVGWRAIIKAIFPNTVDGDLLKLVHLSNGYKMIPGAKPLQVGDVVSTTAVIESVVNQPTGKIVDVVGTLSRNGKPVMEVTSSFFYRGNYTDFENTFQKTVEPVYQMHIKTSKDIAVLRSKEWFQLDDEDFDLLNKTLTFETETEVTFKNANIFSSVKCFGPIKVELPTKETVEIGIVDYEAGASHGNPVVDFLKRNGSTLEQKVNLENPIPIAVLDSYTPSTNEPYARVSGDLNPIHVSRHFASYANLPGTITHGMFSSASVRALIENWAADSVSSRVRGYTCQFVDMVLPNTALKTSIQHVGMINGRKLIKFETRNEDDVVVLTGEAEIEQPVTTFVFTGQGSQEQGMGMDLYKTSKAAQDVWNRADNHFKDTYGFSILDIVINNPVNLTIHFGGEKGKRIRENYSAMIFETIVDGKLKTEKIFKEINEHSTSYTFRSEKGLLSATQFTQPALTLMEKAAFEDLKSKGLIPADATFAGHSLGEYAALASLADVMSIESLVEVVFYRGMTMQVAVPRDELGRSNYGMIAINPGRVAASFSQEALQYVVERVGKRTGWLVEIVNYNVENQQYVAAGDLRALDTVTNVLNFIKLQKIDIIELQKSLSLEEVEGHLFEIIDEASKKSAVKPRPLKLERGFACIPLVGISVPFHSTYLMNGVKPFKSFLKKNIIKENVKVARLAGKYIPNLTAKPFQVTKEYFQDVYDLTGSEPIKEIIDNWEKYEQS
T2 sequence (P19097 whole entry, the tested form may be a part): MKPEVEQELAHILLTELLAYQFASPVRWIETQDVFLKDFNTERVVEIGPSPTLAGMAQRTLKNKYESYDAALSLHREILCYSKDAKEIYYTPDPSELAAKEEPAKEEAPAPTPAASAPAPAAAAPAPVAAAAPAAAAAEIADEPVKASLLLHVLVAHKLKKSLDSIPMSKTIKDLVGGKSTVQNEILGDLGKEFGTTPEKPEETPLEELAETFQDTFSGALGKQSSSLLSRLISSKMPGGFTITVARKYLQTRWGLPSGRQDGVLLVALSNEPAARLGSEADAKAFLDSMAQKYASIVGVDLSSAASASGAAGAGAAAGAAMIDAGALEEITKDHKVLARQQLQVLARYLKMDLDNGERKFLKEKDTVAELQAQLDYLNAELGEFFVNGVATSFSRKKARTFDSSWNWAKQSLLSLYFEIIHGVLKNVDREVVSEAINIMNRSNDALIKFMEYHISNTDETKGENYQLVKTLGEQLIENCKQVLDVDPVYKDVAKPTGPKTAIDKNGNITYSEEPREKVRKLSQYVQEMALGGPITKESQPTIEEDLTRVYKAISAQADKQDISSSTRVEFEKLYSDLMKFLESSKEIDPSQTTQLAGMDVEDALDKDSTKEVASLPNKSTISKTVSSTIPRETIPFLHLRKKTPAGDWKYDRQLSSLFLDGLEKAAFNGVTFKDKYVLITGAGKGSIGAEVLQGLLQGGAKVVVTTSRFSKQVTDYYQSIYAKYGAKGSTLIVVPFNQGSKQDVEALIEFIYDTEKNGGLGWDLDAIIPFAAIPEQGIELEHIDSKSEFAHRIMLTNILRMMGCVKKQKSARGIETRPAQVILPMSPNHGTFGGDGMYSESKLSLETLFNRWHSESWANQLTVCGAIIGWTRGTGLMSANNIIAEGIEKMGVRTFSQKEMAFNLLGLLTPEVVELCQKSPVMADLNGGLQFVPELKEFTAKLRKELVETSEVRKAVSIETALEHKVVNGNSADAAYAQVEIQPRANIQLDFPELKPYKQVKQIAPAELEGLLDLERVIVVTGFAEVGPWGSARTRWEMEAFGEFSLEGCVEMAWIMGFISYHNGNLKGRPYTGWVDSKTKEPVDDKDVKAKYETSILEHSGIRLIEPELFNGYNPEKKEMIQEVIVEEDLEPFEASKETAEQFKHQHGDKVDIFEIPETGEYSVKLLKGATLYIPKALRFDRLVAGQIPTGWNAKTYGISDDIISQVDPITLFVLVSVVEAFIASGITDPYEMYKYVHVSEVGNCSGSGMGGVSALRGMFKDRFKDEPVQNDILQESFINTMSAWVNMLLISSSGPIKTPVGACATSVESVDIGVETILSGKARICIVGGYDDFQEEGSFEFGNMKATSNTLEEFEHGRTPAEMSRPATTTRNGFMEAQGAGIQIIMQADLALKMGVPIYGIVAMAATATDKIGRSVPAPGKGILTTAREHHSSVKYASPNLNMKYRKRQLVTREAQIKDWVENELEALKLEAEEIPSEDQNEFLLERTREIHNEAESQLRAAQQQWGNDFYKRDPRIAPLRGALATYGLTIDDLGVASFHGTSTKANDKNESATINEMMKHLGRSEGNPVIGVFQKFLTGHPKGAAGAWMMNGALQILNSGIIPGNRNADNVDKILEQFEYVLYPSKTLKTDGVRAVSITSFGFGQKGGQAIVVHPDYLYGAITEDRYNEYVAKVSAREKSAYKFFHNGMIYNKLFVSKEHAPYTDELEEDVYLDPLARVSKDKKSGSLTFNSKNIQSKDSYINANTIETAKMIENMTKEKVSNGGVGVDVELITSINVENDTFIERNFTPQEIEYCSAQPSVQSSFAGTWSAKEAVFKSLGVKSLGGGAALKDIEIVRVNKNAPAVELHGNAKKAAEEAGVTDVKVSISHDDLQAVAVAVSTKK

For Cc1cc2nc3c(=O)[nH]c(=O)nc-3n(C[C@H](O)[C@H](O)[C@H](O)COP(=O)(O)O)c2cc1C [flavin mononucleotide], the cryoEM structure [1] was “catalytic histidine can be modeled with two side chain orientations, one facing FMN” and the cryoEM structure [2] was “the catalytic histidine side chain is in a single conformation facing FMN”.

For NC(=O)C1=CN([C@@H]2O[C@H](COP(=O)(O)OP(=O)(O)OC[C@H]3O[C@@H](n4cnc5c(N)ncnc54)[C@H](OP(=O)(O)O)[C@@H]3O)[C@@H](O)[C@H]2O)C=CC1 [NADPH], the “cryoEM structure; NADPH oxidation at 340 nm” value [3] was “Weak NADPH density can also be seen in proximity of FMN” and the “cryoEM structure; NADPH oxidation at 340 nm” value [4] was “Weak density can be seen for the NADPH in proximity of FMN”.

In the case of C/C=C/C/C=C/CCC(=O)[C@H]1O[C@H]1C(N)=O [cerulenin], the not named [5] is reported as “are sensitive to cerulenin, a covalent KS-inhibitor”.
